The structures appear in SMILES notation.

In one series the test system is mNotch1Δ1865. The experiment in a line: Western blot of NICD and mNotch1Δ1865 in transfected HeLa cell cultures. The format is cell-based. How it is done:
Inhibition of Notch signaling in cultured cells using a mouse-derived truncated Notch1 transgene, mNotch-ΔE [67], has been described in detail previously. Western blots for mNotchΔ1865 and NICD using 9E10 anti-c-myc monoclonal were carried out as previously described.
The effect of BMS-869780 on Notch processing was evaluated using transcriptional reporter assays and western blotting of NICD levels. HeLa cell cultures were transfected with mNotch1ΔE and CBF1-luciferase reporter constructs and treated with BMS-869780. In most replicates of this experiment, inhibition of luciferase reporter occurred with IC50 > 10 μM. […] To further evaluate the effect of BMS-869780 on Notch processing, western blots of cell cultures were carried out using mNotch1Δ1865, a truncated version of mNotch1ΔE that facilitates separation of NICD product from mNotch1 substrate on western blots. HeLa cell cultures were transfected with mNotch1Δ1865 and treated overnight with compounds before western blotting. […] Furthermore, the GSIs caused an increased level of mNotch1Δ1865 substrate, most likely due to inhibition of its turnover by γ-secretase, as previously noted by Blat et al..
(b) HeLa cell cultures were transfected with mNotchΔ1865, treated with compounds overnight, and cell extracts were evaluated by western blot using anti-c-myc-HRP conjugate. Lanes 1 and 9: DMSO (0.1%) vehicle. Lane 2: BMS-299897 at 1 μM. Lane 3: BMS-433796 at 0.3 μM. Lanes 4–8: BMS-869780 at 0.1, 0.3, 1, 3, and 10 μM, respectively.

The next series relates to Aβ1-x (H4-APPsw). The experiment in a line: Aβ1-42, Aβ1-40 and Aβ1-x ELISA in H4-APPsw cultures at high concentrations. The format is cell-based, human. As to conditions: overnight. How it is done: IC50 determinations for Aβ1-42 and Aβ1-40 in H4-APPsw cultures in 384-well format were determined using homogeneous time-resolved fluorescence immunoassays as previously described. The principle of these assays is illustrated in Figures 1(c) and 1(d). In other experiments using H4-APPsw cultures, Aβ was quantified by ELISA; for Aβ1-42 the combination of monoclonal antibodies was 26D6 and 565-HRP; for Aβ1-40 it was TSD and 26D6-HRP, and for Aβ1-x it was 4G8 and 26D6-HRP. In some experiments a novel 4-plex Aβ electrochemiluminescence immunoassay was used (Mesoscale Discovery catalog number N45ZA-1). […] For Aβ in transiently transfected PS1/PS2 dKO fibroblasts, Aβ1-42 was quantified using an ELISA kit (WACO), and Aβ1-40 was quantified by ELISA as described above for H4-APPsw cultures. […] For the rat and mouse experiments illustrated in Figures 7 and 8, brain samples were prepared by solid phase extraction, and endogenous rat brain Aβ1-42 and Aβ1-40 were quantified by ELISA as previously described for wild type mice. […] For brain extracts made in 0.2% diethylamine, Aβ1-42, Aβ1-40, Aβ1-38, and Aβ1-37 concentrations in brain and cell culture samples were determined by fitting the results of immunoassays against calibration curves derived from a range of dilutions of the corresponding synthetic peptides on each assay plate using a quadratic curve fit (Graphpad Prizm 5.0). […]
(In general: An ELISA detects its analyte on a solid surface through an enzyme-linked reagent.)

With `C[C@H](c1ccc(F)cc1CCCC(=O)O)N(c1cc(F)ccc1F)S(=O)(=O)c1ccc(Cl)cc1` [BMS-299897, reference compound], the NICD levels entry in the series with mNotch1Δ1865 (BMS-299897 at 1 μM, BMS-433796 at 0.3 μM) is given as “greatly reduced NICD”. For the same compound, in the series with Aβ1-x (H4-APPsw), the “overall levels of Aβ1-x” value was “dramatically reduced all Aβ1-x peptides”.

As to `COc1cc(Nc2nc3n(n2)CCCC[C@H]3c2ccc(F)cc2)ccc1-n1cnc(Cl)c1` [BMS-869780], the mNotch1Δ1865 substrate levels result with mNotch1Δ1865 (10 μM) is given as “did not increase mNotch1Δ1865 levels”. Besides, the cell observation entry in the series on mNotch1Δ1865 (10 μM, HeLa cultures) is “detached and dead cells”. Moreover, the NICD levels entry in the series on mNotch1Δ1865 (concentrations up to 3 μM) was “no effect on NICD levels”. Moreover, in the series with Aβ1-x (H4-APPsw), the “overall levels of Aβ1-x” value is “without any decrease in the overall levels of Aβ1-x”.

For the origin of these results see publication PMC4109680, “Identification and Preclinical Pharmacology of the γ-Secretase Modulator BMS-869780” (International Journal of Alzheimer's Disease, 2014).
